# Reference: patent publication US20200375975A1, “Treatment of Renal Cell Carcinoma with Lenvatinib and Everolimus” (Eisai R&D Management Co., Ltd., priority 2016, published 2020)
# Assays:
# [1] = test system: patients with unresectable advanced or metastatic renal cell carcinoma (RCC); assay: Same Phase 2 trial: PFS and ORR by retrospective independent blinded review of scans; assay type: in vivo, human; settings: combo 18 mg+5 mg; everolimus 10 mg
# [2] = test system: patients with unresectable advanced or metastatic renal cell carcinoma (RCC); assay: Same Phase 2 trial: laboratory abnormalities, Grade 3-4; assay type: in vivo, human; settings: combo (head prints 10 mg+5 mg), LENVIMA 24 mg, everolimus 10 mg
# From the text: Table 4 provides a summary of laboratory abnormalities observed in the patients in the RCC trial described in Example 1.
# [3] = test system: patients with unresectable advanced or metastatic renal cell carcinoma (RCC); assay: Same Phase 2 trial: adverse reactions (CTCAE grades), once daily dosing;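 further: adverse events are any unwanted sign, symptom, abnormal lab finding or disease occurring in time with treatment, whether or not drug-related, and CTCAE grade expresses their severity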
# Protocol: The CTCAE provides a grading (severity) scale for each adverse event term. […] The CTCAE grade refers to the severity of the AE.
# The safety data described below are derived from the trial described in Example 1, which randomized (1:1:1) patients with unresectable advanced or metastatic renal cell carcinoma (RCC) to LENVIMA® 18 mg+everolimus 5 mg (n=51), LENVIMA® 24 mg (n=52), or everolimus 10 mg (n=50) once daily.
# [4] = test system: patients with unresectable advanced or metastatic renal cell carcinoma (RCC); assay: Phase 2 trial in RCC after one prior VEGF-targeted treatment: efficacy (PFS, OS, ORR), investigator assessment, RECIST 1.1; LENVIMA 18 mg+everolimus 5 mg vs LENVIMA 24 mg vs everolimus 10 mg; settings: combo 18 mg+5 mg
# Protocol: A multicenter, randomized, open-label, trial was conducted to determine the safety and efficacy of lenvatinib administered alone or in combination with everolimus in subjects with unresectable advanced or metastatic renal cell carcinoma (RCC). The trial consisted of a Phase 1b dose finding and a Phase 2 portion. The Phase 2 portion enrolled a total of 153 patients with unresectable advanced or metastatic RCC following one prior VEGF-targeted treatment. Patients were required, inter alia, to have histological confirmation of predominant clear cell RCC, radiographic evidence of disease progression according to Response Evaluation Criteria in Solid Tumors Version 1.1 (RECIST), one prior VEGF-targeted therapy, and Eastern Cooperative Oncology Group (ECOG) Performance Status of 0 or 1.
# Patients were randomly allocated to one of 3 arms: (i) LENVIMA® (mesylate salt of lenvatinib) 18 mg+everolimus 5 mg, (ii) LENVIMA® 24 mg, or (iii) everolimus 10 mg, using a 1:1:1 ratio. Patients were stratified by hemoglobin level (≤13 g/dL vs. >13 g/dL for males and ≤11.5 g/dL vs >11.5 g/dL for females) and corrected serum calcium (≥10 mg/dL vs. <10 mg/dL).
# The primary efficacy outcome measure, based on investigator assessed tumor response, was progression-free survival (PFS) of the LENVIMA® plus everolimus arm vs. the everolimus arm and of the LENVIMA® arm vs. the everolimus arm. Other efficacy outcome measures included investigator-assessed overall survival (OS) and objective response rate (ORR).
# Tumor assessments were evaluated according to RECIST.
# [5] = cited from earlier work
# rats = settings: rat, in vivo, po; cited from earlier work
# rabbits = settings: rabbit, in vivo, po; cited from earlier work
# [6] = LENVIMA 24 mg, everolimus 10 mg
# [7] = combo 18 mg+5 mg, LENVIMA 24 mg, everolimus 10 mg
# [8] = everolimus 10 mg, cutoff Jul. 31, 2015
# [9] = everolimus 10 mg, cutoff Jun. 13, 2014
# [10] = combo 18 mg+5 mg, LENVIMA 24 mg
structure (smiles),measurement,setting,value
"CO[C@H]1C[C@@H]2CC[C@@H](C)[C@@](O)(O2)C(=O)C(=O)N2CCCC[C@H]2C(=O)O[C@H]([C@H](C)C[C@@H]2CC[C@@H](OCCO)[C@H](OC)C2)CC(=O)[C@H](C)/C=C(\C)[C@@H](O)[C@@H](OC)C(=O)[C@H](C)C[C@H](C)/C=C/C=C/C=C/1C [Everolimus, (1R,9S,12S,15R,16E,18R,19R,21R,23 S,24E,26E,28E,30S,32S,35R)-1,18-dihydroxy-12-{(1R)-2-[(1 S,3R,4R)-4-(2-hydroxyethoxy)-3-methoxycyclohexyl]-1-methylethyl}-19,30-dimethoxy-15,17,21,23,29,35-hexamethyl-11,36-dioxa-4-aza-tricyclo[30.3.1.0^4,9]hexatriaconta-16,24,26,28-tetraene-2,3,10,14,20-pentaone]","ORR, independent blinded review",[1],no subject had an objective response
same,"Alkaline phosphatase increased, Grades 3-4",[2],0%
same,"Aspartate aminotransferase (AST) increased, Grades 3-4",[2],0%
same,"Hemoglobin decreased, Grades 3-4",[2],16%
same,"Hyperglycemia, Grades 3-4",[2],16%
same,"Hyperkalemia, Grades 3-4",[2],2%
same,"Hypocalcemia, Grades 3-4",[2],2%
same,"Hypokalemia, Grades 3-4",[2],2%
same,"Hyponatremia, Grades 3-4",[2],6%
same,"Hypophosphatemia, Grades 3-4",[2],6%
same,"Lipase increased, Grades 3-4",[2],12%
same,"Lymphocyte count decreased, Grades 3-4",[2],20%
same,"Platelet count decreased, Grades 3-4",[2],0%
same,"Aspartate aminotransferase (AST) increased, Grades 3-4",[2]; listed as everolimus,no patients
same,"arterial thromboembolic events, Grade 3 or greater",[3]; [6],4%
same,"Adverse reactions led to dose reductions or interruption, patients",[3]; [7],54%
same,"Arthralgia/myalgia, All Grades",[3]; [7],32%
same,"Arthralgia/myalgia, Grades 3-4",[3]; [7],0%
same,"Confusional state, All Grades",[3]; [7],0%
same,"Confusional state, Grades 3-4",[3]; [7],0%
same,"Constipation, All Grades",[3]; [7],18%
same,"Constipation, Grades 3-4",[3]; [7],0%
same,"Cough, All Grades",[3]; [7],30%
same,"Cough, Grades 3-4",[3]; [7],0%
same,"Decreased appetite, All Grades",[3]; [7],18%
same,"Decreased appetite, Grades 3-4",[3]; [7],0%
same,"Decreased weight, All Grades",[3]; [7],8%
same,"Decreased weight, Grades 3-4",[3]; [7],0%
same,"Dehydration, All Grades",[3]; [7],2%
same,"Dehydration, Grades 3-4",[3]; [7],0%
same,"Diarrhea, All Grades",[3]; [7],34%
same,"Diarrhea, Grades 3-4",[3]; [7],2%
same,"Discontinuation of treatment due to hemorrhagic events, patients",[3]; [7],no discontinuations
same,"Dyspepsia, All Grades",[3]; [7],12%
same,"Dyspepsia, Grades 3-4",[3]; [7],0%
same,"Dysphonia, All Grades",[3]; [7],4%
same,"Dysphonia, Grades 3-4",[3]; [7],0%
same,"Dyspnea, All Grades",[3]; [7],28%
same,"Dyspnea, Grades 3-4",[3]; [7],8%
same,"Epistaxis, All Grades",[3]; [7],24%
same,"Epistaxis, Grades 3-4",[3]; [7],0%
same,Events of renal impairment,[3]; [7],12%
same,"Fatigue, All Grades",[3]; [7],38%
same,"Gastrointestinal disorders and Abdominal pain, All Grades",[3]; [7],8%
same,"Gastrointestinal disorders and Abdominal pain, Grades 3-4",[3]; [7],0%
same,"Grade 3 or greater diarrhea, patients",[3]; [7],2%
same,"Grade 3 or greater renal failure or impairment, incidence",[3]; [7],2%
same,"Headache, Grades 3-4",[3]; [7],2%
same,"Hypertension, All Grades",[3]; [7],10%
same,"Hypertension, Grades 3-4",[3]; [7],2%
same,"Insomnia, All Grades",[3]; [7],2%
same,"Insomnia, Grades 3-4",[3]; [7],0%
same,"Musculoskeletal chest pain, All Grades",[3]; [7],4%
same,"Musculoskeletal chest pain, Grades 3-4",[3]; [7],0%
same,"Nausea, All Grades",[3]; [7],16%
same,"Nausea, Grades 3-4",[3]; [7],0%
same,"Oral inflammation, All Grades",[3]; [7],50%
same,"Oral inflammation, Grades 3-4",[3]; [7],4%
same,"Oral pain, All Grades",[3]; [7],4%
same,"Oral pain, Grades 3-4",[3]; [7],0%
same,"Proteinuria, All Grades",[3]; [7],14%
same,"Proteinuria, Grades 3-4 (text: Grade 3 or greater)",[3]; [7],2%
same,"Pruritus, All Grades",[3]; [7],14%
same,"Pruritus, Grades 3-4",[3]; [7],0%
same,"Pyrexia, All Grades",[3]; [7],10%
same,"QT/QTc interval prolongation, patients",[3]; [7],No reports
same,"Rash, All Grades",[3]; [7],30%
same,"Rash, Grades 3-4",[3]; [7],0%
same,"Renal failure events, All Grades",[3]; [7],2%
same,"Renal failure events, Grades 3-4",[3]; [7],2%
same,"Vomiting, Grades 3-4",[3]; [7],0%
same,"arterial thromboembolic events, patients",[3]; [7],6%
same,"decreased ejection fraction and cardiac failure, Grade 3",[3]; [7],2%
same,"decreased ejection fraction and cardiac failure, patients",[3]; [7],4%
same,"epistaxis, Grade 1",[3]; [7],20%
same,"gastrointestinal perforation or fistula, patients",[3]; [7],no patients
same,"hemorrhagic events, Grade 3 or greater",[3]; [7],2%
same,"hemorrhagic events, patients",[3]; [7],28%
same,"hypothyroidism, patients",[3]; [7],2%
same,patients discontinued treatment for adverse reactions,[3]; [7],6 (12%) n (%)
same,elevation of TSH level post baseline in patients with a normal TSH at baseline,"[3]; combo 18 mg+5 mg, everolimus 10 mg",none
same,"epistaxis, Grade 2",[3]; everolimus 10 mg,4%
same,Number of complete responses (%),[4]; everolimus 10 mg,0 n (%)
same,Number of partial responses (%),[4]; everolimus 10 mg,3 (6) n (%)
same,Number of progressive disease (%),[4]; everolimus 10 mg,12 (24) n (%)
same,Number of stable disease (%),[4]; everolimus 10 mg,31 (62) n (%)
same,"Overall Survival (updated analysis): Number of deaths, n (%)",[4]; [8],37 (74) n (%)
same,Overall Survival: Number of deaths (%),[4]; [9],26 (52) n (%)
"COc1cc2nccc(Oc3ccc(NC(=O)NC4CC4)c(Cl)c3)c2cc1C(N)=O [LENVIMA ®, 4-[3-chloro-4-(N′-cyclopropylureido)phenoxy]-7-methoxyquinoline-6-carboxamide methanesulfonate]","Alkaline phosphatase increased, Grades 3-4",[2],0%
same,"Aspartate aminotransferase (AST) increased, Grades 3-4",[2],4%
same,"Hemoglobin decreased, Grades 3-4",[2],4%
same,"Hyperglycemia, Grades 3-4",[2],8%
same,"Hyperkalemia, Grades 3-4",[2],2%
same,"Hypokalemia, Grades 3-4",[2],8%
same,"Hyponatremia, Grades 3-4",[2],6%
same,"Hypophosphatemia, Grades 3-4",[2],4%
same,"Lipase increased, Grades 3-4",[2],10%
same,"Lymphocyte count decreased, Grades 3-4",[2],4%
same,"Platelet count decreased, Grades 3-4",[2],2%
same,"Hypocalcemia, Grades 3-4","[2]; listed as LENVIMA®, methanesulfonate",no patients
same,solubility in ethanol (dehydrated),[5]; ethanol (dehydrated),practically insoluble
same,solubility in water,[5]; water,slightly soluble
same,"arterial thromboembolic events, Grade 3 or greater",[3]; [6],8%
same,"QT/QTc interval prolongation, Grade 3 or greater events",[3]; [10],No Grade 3 or greater events
same,fatal hemorrhage cases,[3]; [10],one case of fatal intracranial hemorrhage
same,"Arthralgia/myalgia, All Grades",[3]; [7],56%
same,"Arthralgia/myalgia, Grades 3-4",[3]; [7],4%
same,"Confusional state, All Grades",[3]; [7],4%
same,"Confusional state, Grades 3-4",[3]; [7],2%
same,"Cough, All Grades",[3]; [7],17%
same,"Cough, Grades 3-4",[3]; [7],2%
same,"Decreased appetite, All Grades",[3]; [7],58%
same,"Decreased appetite, Grades 3-4",[3]; [7],4%
same,"Decreased weight, All Grades",[3]; [7],50%
same,"Decreased weight, Grades 3-4",[3]; [7],6%
same,"Dehydration, All Grades",[3]; [7],2%
same,"Dehydration, Grades 3-4",[3]; [7],0%
same,"Dysphonia, All Grades",[3]; [7],37%
same,"Dysphonia, Grades 3-4",[3]; [7],0%
same,"Dyspnea, All Grades",[3]; [7],25%
same,"Dyspnea, Grades 3-4",[3]; [7],2%
same,"Epistaxis, All Grades",[3]; [7],8%
same,"Epistaxis, Grades 3-4",[3]; [7],0%
same,"Fatigue, All Grades",[3]; [7],52%
same,"Headache, Grades 3-4",[3]; [7],6%
same,"Insomnia, All Grades",[3]; [7],15%
same,"Insomnia, Grades 3-4",[3]; [7],0%
same,"Musculoskeletal chest pain, All Grades",[3]; [7],15%
same,"Musculoskeletal chest pain, Grades 3-4",[3]; [7],4%
same,"Pruritus, All Grades",[3]; [7],6%
same,"Pruritus, Grades 3-4",[3]; [7],0%
same,"Pyrexia, All Grades",[3]; [7],10%
same,"QT/QTc interval prolongation, patients",[3]; [7],6%
same,"Rash, All Grades",[3]; [7],15%
same,"Rash, Grades 3-4",[3]; [7],0%
same,"Renal failure events, All Grades",[3]; [7],10%
same,"Renal failure events, Grades 3-4",[3]; [7],6%
same,"Vomiting, Grades 3-4",[3]; [7],4%
same,"Duration of response, months, median (95% CI)",[4]; everolimus 10 mg,"7.5 (3.8, NE) months"
same,Number of complete responses (%),[4]; everolimus 10 mg,0 n (%)
same,Number of partial responses (%),[4]; everolimus 10 mg,14 (27) n (%)
same,Number of progressive disease (%),[4]; everolimus 10 mg,3 (6) n (%)
same,Number of stable disease (%),[4]; everolimus 10 mg,27 (52) n (%)
same,"Median OS in months (95% CI), updated analysis",[4]; [8],"19.1 (13.6, 26.2) months"
same,"Overall Survival (updated analysis): Number of deaths, n (%)",[4]; [8],34 (65) n (%)
same,Median OS in months (95% CI),[4]; [9],"18.4 (13.3, NE) months"
same,Median PFS in months (95% CI),[4]; [9],"7.4 (5.6, 10.2) months"
same,Overall Survival: Number of deaths (%),[4]; [9],26 (50) n (%)
same,PFS compared with the everolimus arm (in words),[4]; vs everolimus 10 mg,improvement
"COc1cc2nccc(Oc3ccc(NC(=O)NC4CC4)c(Cl)c3)c2cc1C(N)=O [lenvatinib, 4-(3-chloro-4(cyclopropylaminocarbonyl)aminophenoxy)-7-methoxy-6-quinolinecarboxamide]",embryofetal toxicity findings,rats,"embryotoxicity, fetotoxicity, and teratogenicity"
same,embryofetal toxicity findings,rabbits,"embryotoxicity, fetotoxicity, and teratogenicity"
